“And” between values parts separate entries of the source, which are not always exact repeats. Equal entries are not always repeated.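 Tested at 5 concentrations; 48 h exposure; 96-well plates; endpoints linearly interpolated, else capped at highest concentration. GI50 marks 50% less growth. TGI: concentration producing complete growth inhibition.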
Columns and labels:
Assay in all cases: NCI anticancer screen, dose series, 48 h
OVCAR-3 ovarian = tested on: OVCAR-3 ovarian
MDA-MB-435 = tested on: MDA-MB-435
HCC-2998 colon = tested on: HCC-2998 colon
UO-31 renal = tested on: UO-31 renal
MALME-3M melanoma = tested on: MALME-3M melanoma
HL-60(TB) leukemia = tested on: HL-60(TB) leukemia
LOX IMVI melanoma = tested on: LOX IMVI melanoma
KM12 colon = tested on: KM12 colon
KM20L2 colon = tested on: KM20L2 colon
DLD-1 colon = tested on: DLD-1 colon

| SMILES | TGI (OVCAR-3 ovarian) [µM] | TGI (MDA-MB-435) | GI50 (HCC-2998 colon) [µM] | TGI (HCC-2998 colon) [µM] | TGI (UO-31 renal) [µM] | TGI (MALME-3M melanoma) [µM] | TGI (HL-60(TB) leukemia) [µM] | GI50 (LOX IMVI melanoma) [µM] | TGI (LOX IMVI melanoma) | TGI (KM12 colon) [µM] | GI50 (OVCAR-3 ovarian) [µM] | GI50 (MDA-MB-435) [µM] | GI50 (UO-31 renal) [µM] | GI50 (MALME-3M melanoma) [µM] | GI50 (HL-60(TB) leukemia) [µM] | GI50 (KM12 colon) [µM] | TGI (KM20L2 colon) [µM] | TGI (DLD-1 colon) [µM] |
| --- | --- | --- | --- | --- | --- | --- | --- | --- | --- | --- | --- | --- | --- | --- | --- | --- | --- | --- |
| COC(=O)c1cc2ccc(O)c(O)c2cn1 | 30.8 | 3.25 µM and 3.21 µM | > 100 | > 100 | 32.2 | 27.5 | > 100 | 1.57 | 5.43 µM and 3.31 µM | 32 |  |  |  |  |  |  |  |  |
| CN1C(=O)C(c2c[nH]c3ccccc23)=C(c2c[nH]c3ccccc23)C1=O | > 25 | 16.2 µM | 5.46 | 13.1 | > 20.6 | > 20.8 | 18.1 | 3.73 | 9.3 µM | > 21.3 | 7.03 | 5.49 | 2.64 | 7.44 | 6.37 | 5.66 |  |  |
| COc1cc(/C=C/C(=O)c2cccc(-n3cc(-c4ccccc4)[nH]c3=O)c2)cc(OC)c1OC | 3.14 | 5.35 µM | 1.26 | 2.51 | 4.56 | 3.56 | > 100 | 0.489 | 1.67 µM | 2.66 | 1.23 | 1.2 | 1.51 | 1.31 | 2.9 | 1.37 |  |  |
| CC(C)(CN1CCCCC1)C(=O)/C=C/c1ccccc1 | 21.6 |  |  | 27.9 | 39.6 | 30.3 |  |  | 41.3 µM | 28.9 |  |  |  |  |  |  | 28.1 | 54.1 |
| COc1ccc(-c2nc3sc(-c4cc(OC)c(OC)c(OC)c4)nn3c2/C=C2/C(=O)Nc3ccc(F)cc32)cc1 | 5.27 | 14 µM | 5.25 | 22 | 29.7 | 29.9 | 70.3 | 6.88 | 37.6 µM | 15.7 | 2.32 | 3.39 | 15 | 9.15 | 2.17 | 4.04 |  |  |
| CC1CCCCCC(=O)c2c(O)cc(O)cc2CC(=O)O1 (stereo not drawn) | > 100 | > 100 µM |  | > 100 | > 100 | > 100 | > 100 |  | > 100 µM | > 100 |  |  |  |  |  |  |  |  |
| O=[N+]([O-])c1ccc(C2=NCCO2)cc1 | > 100 | > 100 µM | > 100 | > 100 | > 100 | > 100 | > 100 | > 100 | > 100 µM | > 100 | > 100 | > 100 | > 100 | > 100 | > 100 | > 100 |  |  |
| Cn1cc(C2NC(=O)c3ccccc3N2)c2ccccc21 (stereo not drawn) | 2.03 | > 100 µM |  | 7.45 | > 100 | > 29.7 | 0.485 |  | > 89.8 µM | 26.9 |  |  |  |  |  |  |  |  |
| C[C@@H]1C(=O)CC2C(C)(C)CCC[C@]2(C)[C@@]12CC[C@]1(C=COC1)O2 (stereo partly drawn) | > 100 |  |  | > 100 | > 100 | 79.5 | 42.3 |  | > 100 µM | > 100 |  |  |  |  |  |  | > 100 |  |
| CN1CCN(Cc2ccc(NC(=O)c3cncc(C#Cc4cnc(N)c5ncccc45)c3)cc2C(F)(F)F)CC1 | 4.88 | 1.44 µM | 0.539 | 16.7 | 1.21 | 0.607 | 0.602 | 0.216 | 1.33 µM | 4.03 | 0.781 | 0.247 | 0.242 | 0.131 | 0.0768 | < 0.0146 |  |  |
| CC(C)=CCC/C(C)=C/CC/C(C)=C/CSC[C@H](NC(=O)CCCCCN1CCN(C)CC1)C(=O)NC1CCCCCC1 | 4.1 | 3.43 µM | 1.84 | 3.61 | 3.22 | 3.56 | 4.14 | 1.76 | 3.29 µM | 3.86 | 2.06 | 1.85 | 1.58 | 1.94 | 1.98 | 1.97 |  |  |
| O=C1NN2CC(c3ccccc3)=NN=C2c2ccccc21 | 48.2 | > 100 µM | 15.6 | 36.2 | 66.6 | 87.6 | 56.8 | 22.6 | 47 µM | > 100 | 20.1 | 36.7 | 28 | 32.1 | 19.9 | 31.9 |  |  |
| C[C@@H]1CN2[C@H]3[C@@H]1CC[C@]31CCC(=O)O[C@]1(C)[C@H]1CC[C@H]3CCC=C3[C@@H]12 | > 30 | > 30 µM | > 30 | > 30 | > 30 | > 30 | > 30 | > 30 | > 30 µM | > 30 | > 30 | > 30 | > 30 | > 30 | > 30 | > 30 |  |  |
| Cn1cc(C2=C(c3ccsc3)C(=O)NC2=O)c2ccccc21 | > 25 | > 25 µM | > 25 | > 25 | > 25 | > 25 | > 25 | > 25 | > 25 µM | > 25 | 17.2 | > 25 | 8.49 | > 25 | > 25 | > 25 |  |  |
| CC1=C(CCCOC(=O)[C@H](N)CC(C)C)C2=C(C)C3(CC3)[C@@](C)(O)C(=O)C2=C1 | 7.6 | 27.6 µM | 1.78 | 4.49 | 4.32 | 3.31 | 13.2 | 2.42 | 8.9 µM | > 100 | 2.31 | 3.28 | 1.42 | 1.44 | 2.01 | 7.66 |  |  |
| CCN(Cc1ccc(OC)cc1)c1ccc(CO)c(Cl)c1 | 6.19 | 43.6 µM | 12.9 | 40.4 | 39.6 | 38.4 | 59.9 | 13.2 | 27.4 µM | 44.7 | 0.636 | 16.7 | 6.18 | 17 | 13.8 | 18.3 |  |  |
